Test results reported in patent US20260083851A1 (AVILAR THERAPEUTICS, INC., priority 2022, published 2026).

Target: T1, ASGP receptor (biotinylated ASGPR) (Homo sapiens, UniProt P07306)
T1 construct: biotin (biotinylated)
T1 sequence (P07306 1-291): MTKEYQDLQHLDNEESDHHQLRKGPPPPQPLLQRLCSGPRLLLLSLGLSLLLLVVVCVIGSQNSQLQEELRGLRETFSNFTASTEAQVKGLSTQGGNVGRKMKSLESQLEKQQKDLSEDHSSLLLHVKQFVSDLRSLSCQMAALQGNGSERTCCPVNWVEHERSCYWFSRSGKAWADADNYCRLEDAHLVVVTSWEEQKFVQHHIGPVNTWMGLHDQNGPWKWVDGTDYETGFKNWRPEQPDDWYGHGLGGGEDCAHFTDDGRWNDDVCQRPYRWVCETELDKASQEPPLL
Type: binding
Conditions: SPR, Biacore 8K, 25° C.; Table 1A, numeric bound; read-out: ASGPR KD

| SMILES | Kd |
| --- | --- |
| O=C(O)CNC(COCCC(=O)NC[C@H]1OC[C@H](Nc2cncc(C(F)(F)F)n2)[C@@H](O)[C@H]1O)COCCC(=O)NC[C@H]1OC[C@H](Nc2cncc(C(F)(F)F)n2)[C@@H](O)[C@H]1O [A23, (1,15-bis((2R,3R,4R,5S)-3,4-dihydroxy-5-((6-(trifluoromethyl)pyrazin-2-yl)amino)tetrahydro-2H-pyran-2-yl)-3,13-dioxo-6,10-dioxa-2,14-diazapentadecan-8-yl)glycine] | > 20 µM |

Same assay, conditions: SPR, Biacore 8K, 25° C.; Table 1A; read-out: ASGPR KD

| SMILES | Kd |
| --- | --- |
| CC(=O)N[C@@H]1[C@@H](O)[C@@H](O)[C@@H](CO)O[C@@H]1c1ccccc1 [A95, N-((2R,3R,4R,5R,6R)-4,5-dihydroxy-6-(hydroxymethyl)-2-phenyltetrahydro-2H-pyran-3-yl)acetamide] | < 10 µM |
| OC[C@H]1CC[C@H](Nc2cncc(C(F)(F)F)n2)[C@@H](O)[C@H]1O [A65, (1R,2S,3R,6S)-3-(hydroxymethyl)-6-((6-(trifluoromethyl)pyrazin-2-yl)amino)cyclohexane-1,2-diol] | < 10 µM |
| O=C(NC[C@H]1OC[C@H](Nc2cncc(C(F)(F)F)n2)[C@@H](O)[C@H]1O)c1ncc2c(n1)CCNC2 [A86, N-(((2R,3R,4R,5S)-3,4-dihydroxy-5-((6-(trifluoromethyl)pyrazin-2-yl)amino)tetrahydro-2H-pyran-2-yl)methyl)-5,6,7,8-tetrahydropyrido[4,3-d]pyrimidine-2-carboxamide] | < 10 µM |
| O=C(NC[C@H]1OC[C@H](Nc2cncc(C(F)(F)F)n2)[C@@H](O)[C@H]1O)c1ccc2c(c1)CCNC2 [A3, N-(((2R,3R,4R,5S)-3,4-dihydroxy-5-((6-(trifluoromethyl)pyrazin-2-yl)amino)tetrahydro-2H-pyran-2-yl)methyl)-1,2,3,4-tetrahydroisoquinoline-6-carboxamide] | < 10 µM |
| OC[C@H]1NC[C@H](Nc2cncc(C(F)(F)F)n2)[C@@H](O)[C@H]1O [A118] | < 10 µM |
| O=C(NC[C@H]1OC[C@H](Nc2cncc(C(F)(F)F)n2)[C@@H](O)[C@H]1O)c1ccc2ncncc2c1 [A17, N-(((2R,3R,4R,5S)-3,4-dihydroxy-5-((6-(trifluoromethyl)pyrazin-2-yl)amino)tetrahydro-2H-pyran-2-yl)methyl)quinazoline-6-carboxamide] | < 10 µM |
| O[C@@H]1[C@H](O)[C@@H](Nc2cncc(C(F)(F)F)n2)CO[C@@H]1CN1CCNCC1 [A91, (2R,3R,4R,5S)-2-(piperazin-1-ylmethyl)-5-((6-(trifluoromethyl)pyrazin-2-yl)amino)tetrahydro-2H-pyran-3,4-diol] | < 10 µM |
| O=C(O)COCCOCC(=O)NC[C@H]1OC[C@H](Nc2ccnc(C(F)(F)F)n2)[C@@H](O)[C@H]1O [A116, 2-(2-(2-((((2R,3R,4R,5S)-3,4-dihydroxy-5-((2-(trifluoromethyl)pyrimidin-4-yl)amino)tetrahydro-2H-pyran-2-yl)methyl)amino)-2-oxoethoxy)ethoxy)acetic acid] | < 10 µM |
| OC[C@H]1OC[C@H](Nc2ccccc2)[C@@H](O)[C@H]1O [A108, (2R,3R,4R,5S)-2-(hydroxymethyl)-5-(phenylamino)tetrahydro-2H-pyran-3,4-diol] | < 10 µM |
| O=C(O)c1ccc(N2CCC(CN3CCN(C[C@H]4OC[C@H](Nc5cccc(C(F)(F)F)n5)[C@@H](O)[C@H]4O)CC3)CC2)cc1 [A100, 4-(4-((4-(((2R,3R,4R,5S)-3,4-dihydroxy-5-((6-(trifluoromethyl)pyridin-2-yl)amino)tetrahydro-2H-pyran-2-yl)methyl)piperazin-1-yl)methyl)piperidin-1-yl)benzoic acid] | < 10 µM |

Same assay, conditions: SPR, Biacore 8K, 25° C.; Table 1B; read-out: ASGPR Kd

| SMILES | Kd |
| --- | --- |
| OC[C@H]1OC[C@H](Nc2cncc(Cl)n2)[C@@H](O)[C@H]1O [A147, (2R,3R,4R,5S)-5-((6-chloropyrazin-2-yl)amino)-2-(hydroxymethyl) tetrahydro-2H-pyran-3,4-diol] | < 10 µM |
| N#Cc1cc(N[C@H]2CO[C@H](CO)[C@H](O)[C@@H]2O)nc(C(F)(F)F)c1 [A139, 2-(((3S,4R,5R,6R)-4,5-dihydroxy-6-(hydroxymethyl)tetrahydro-2H-pyran-3-yl)amino)-6-(trifluoromethyl)isonicotinonitrile] | < 10 µM |

Same assay, conditions: SPR, Biacore 8K, 25° C.; Table 1C; read-out: ASGPR KD

| SMILES | Kd |
| --- | --- |
| O[C@@H]1[C@H](O)[C@@H](Oc2cccc(C(F)(F)F)n2)CO[C@@H]1CN1CCN(c2ccc(Br)nn2)CC1 [A257] | < 10 µM |
| OCc1cnc(OC[C@H]2OC[C@H](Nc3cncc(C(F)(F)F)n3)[C@@H](O)[C@H]2O)nc1 [A222, (2R,3R,4R,5S)-2-(((5-(hydroxymethyl)pyrimidin-2-yl)oxy)methyl)-5-((6-(trifluoromethyl)pyrazin-2-yl)amino)tetrahydro-2H-pyran-3,4-diol] | < 10 µM |
| O[C@@H]1[C@H](O)[C@@H](Oc2cccc(C(F)(F)F)n2)CO[C@@H]1CN1CCN(c2cncnc2)CC1 [A293] | < 10 µM |
| O=C(O)c1ccc(N2CCN(C[C@H]3OC[C@H](Nc4cncc(C(F)(F)F)n4)[C@@H](O)[C@H]3O)CC2)nn1 [A207, 6-(4-(((2R,3R,4R,5S)-3,4-dihydroxy-5-((6-(trifluoromethyl)pyrazin-2-yl)amino)tetrahydro-2H-pyran-2-yl)methyl)piperazin-1-yl)pyridazine-3-carboxylic acid] | < 10 µM |
| OC[C@H]1OC[C@H](Nc2cccc(OC(F)F)n2)[C@@H](O)[C@H]1O [A185, (2R,3R,4R,5S)-5-((6-(difluoromethoxy)pyridin-2-yl)amino)-2-(hydroxymethyl)tetrahydro-2H-pyran-3,4-diol] | < 10 µM |
| O=C(O)c1ccc(-c2ccc(OC[C@H]3OC[C@H](Nc4cncc(C(F)(F)F)n4)[C@@H](O)[C@H]3O)cc2)cc1 [A215, 4′-(((2R,3R,4R,5S)-3,4-dihydroxy-5-((6-(trifluoromethyl)pyrazin-2-yl)amino)tetrahydro-2H-pyran-2-yl)methoxy)-[1,1′-biphenyl]-4-carboxylic acid] | < 10 µM |
| O[C@@H]1[C@H](O)[C@@H](Nc2cncc(C(F)(F)F)n2)CO[C@@H]1CN1CCc2ccccc2C1 [A232, (2R,3R,4R,5S)-2-((3,4-dihydroisoquinolin-2(1H)-yl)methyl)-5-((6-(trifluoromethyl)pyrazin-2-yl)amino)tetrahydro-2H-pyran-3,4-diol] | < 10 µM |
| O=C(O)c1ccc(-c2ccc(OC[C@H]3OC[C@H](Oc4cccc(C(F)(F)F)n4)[C@@H](O)[C@H]3O)nn2)cc1 [A255] | < 10 µM |
| O[C@@H]1[C@H](O)[C@@H](Oc2cccc(C(F)(F)F)n2)CO[C@@H]1COc1ncccn1 [A235, (2R,3R,4S,5S)-2-((pyrimidin-2-yloxy)methyl)-5-((6-(trifluoromethyl)pyridin-2-yl)oxy)tetrahydro-2H-pyran-3,4-diol] | < 10 µM |
| O=C1c2sccc2CN1C[C@H]1OC[C@H](Oc2cccc(C(F)(F)F)n2)[C@@H](O)[C@H]1O [A291] | < 10 µM |
| O[C@@H]1[C@H](O)[C@@H](Oc2cccc(C(F)(F)F)n2)CO[C@@H]1COc1cnccn1 [A229, (2R,3R,4S,5S)-2-((pyrazin-2-yloxy)methyl)-5-((6-(trifluoromethyl)pyridin-2-yl)oxy)tetrahydro-2H-pyran-3,4-diol] | < 10 µM |

More lines, now with the values ahead:

| Kd | SMILES |
| --- | --- |
| < 10 µM | O[C@@H]1[C@@H](Oc2cccc(C(F)(F)F)n2)COC(C(F)c2ccc(Cl)cc2)[C@@H]1O (stereo partly drawn) [A308] |
| < 10 µM | O[C@@H]1[C@H](O)[C@@H](Oc2cccc(C(F)(F)F)n2)CO[C@@H]1COc1cccnc1 [A301] |
| < 10 µM | O[C@@H]1[C@H](O)[C@@H](Oc2cccc(C(F)(F)F)n2)CO[C@@H]1CSc1ccccc1 [A304] |
| < 10 µM | C[C@H]1O[C@H](C#Cc2ccc(C(=O)O)nn2)[C@H](Oc2cccc(C(F)(F)F)n2)[C@@H](O)[C@H]1O [A331] |
| < 10 µM | OC[C@H]1O[C@H](c2ccccc2)[C@H](Oc2cccc(C(F)(F)F)n2)[C@@H](O)[C@H]1O [A329] |
| < 10 µM | O[C@@H]1[C@H](O)[C@@H](Oc2cccc(C(F)(F)F)n2)CO[C@@H]1CN1CCN(c2cnccn2)CC1 [Compound A248] |

Same assay, conditions: SPR, Biacore 8K, 25° C.; Table 1D, numeric bound; read-out: ASGPR KD

| SMILES | Kd |
| --- | --- |
| O=C(OCc1ccccc1)N1C[C@H](O)[C@H](O)[C@@H](S(=O)(=O)c2cccc(C(F)(F)F)n2)C1 [A356] | > 30 µM |

Same assay, conditions: SPR, Biacore 8K, 25° C.; Table 1D; read-out: ASGPR KD

| SMILES | Kd |
| --- | --- |
| O=C(c1ccccn1)N1C[C@H](Nc2cncc(C(F)(F)F)n2)[C@@H](O)[C@@H](O)C1 [A423] | < 10 µM |
| O[C@@H]1[C@H](O)[C@@H](Nc2cncc(C(F)(F)F)n2)CO[C@@H]1COc1ccc(C2CCNCC2)nn1 [A416] | < 10 µM |
| Cc1nnc(N2C[C@H](Oc3cccc(C(F)(F)F)n3)[C@@H](O)[C@@H](O)C2)o1 [A352] | < 10 µM |
| O[C@@H]1[C@@H](Oc2cccc(C(F)(F)F)n2)CN(c2ncon2)C[C@@H]1O [A359] | < 10 µM |
| Nc1ccc(OC[C@H]2OC[C@H](Nc3cncc(C(F)(F)F)n3)[C@@H](O)[C@H]2O)nn1 [A418] | < 10 µM |
| O[C@@H]1[C@@H](Nc2cncc(C(F)(F)F)n2)CN(c2ccccc2)C[C@@H]1O [A393] | < 10 µM |
| O[C@@H]1[C@@H](Nc2cncc(C(F)(F)F)n2)CN(Cc2ccccc2)C[C@@H]1O [A373] | < 10 µM |
| O[C@@H]1[C@H](O)[C@@H](Nc2cncc(C(F)(F)F)n2)CO[C@@H]1COc1ccc(C2CNC2)nn1 [A420] | < 10 µM |

Same assay, conditions: SPR, Biacore 8K, 25° C.; Table 1E, numeric bound; read-out: ASGPR KD

| SMILES | Kd |
| --- | --- |
| C[C@H]1O[C@H](C(=O)NCCOCCOCC(=O)O)[C@H](Oc2cccc(C(F)(F)F)n2)[C@@H](O)[C@H]1O [A440] | > 30 µM |

Same assay, conditions: SPR, Biacore 8K, 25° C.; Table 1E; read-out: ASGPR KD

| SMILES | Kd |
| --- | --- |
| C[C@H]1O[C@H](C2=CC3C(C2=O)[C@@H]2CC[C@H]3C2)[C@H](Oc2cccc(C(F)(F)F)n2)[C@@H](O)[C@H]1O (stereo partly drawn) [A435A] | < 10 µM |
| O=C(O)c1cnc(OC[C@@]23CO[C@@H](O2)[C@H](Nc2cncc(C(F)(F)F)n2)[C@@H](O)[C@H]3O)cn1 [A452] | < 10 µM |
